# Where two headings read alike, the source gives them in different places.
# Biological target: T1, mGluR2 receptor (metabotropic glutamate receptor 2) (Homo sapiens, UniProt Q14416)
# T1 construct: expressed in transfected cells
# Experiment: mGluR2 Potentiator Screen, FLIPR, EC10-EC20 glutamate challenge
# Type: cell-based
# Method: Procedure for mGluR2 Potentiator Screen NLB Methods EC10-EC20 Challenge Cell Culture and Plating:
# Cells used for this screen are HEK cells stably transfected with the mGluR2 receptor (metabotropic glutamate receptor 2) and the Gα15 G protein. Clones were identified by functional activity (FLIPR). Cells are grown in growth media containing: DMEM High Glucose with Glutamine and Na Pyruvate (GIBCO), 10% (v/v) Heat inactivate FBS (GIBCO) G418 500 ug/ml (from 50 mg/ml stock) (GIBCO) and Blasticidin 3 ug/ml (from 5 mg/ml stock made in H2O) (Invitrogen).
# 2 days before the assay cell are trypsinized with 0.25% trysin/EDTA (GIBCO), spun down at 1000 rpm for 5 minutes, resuspended in growth media and plated on polystyrene 384 well black wall/clear bottom poly-D-lysine coated plates at a density of approximately 18,000 cells/well in a volume of 50 μL per well. One day before the assay the growth media is removed from the plates by flicking and replaced with media containing DMEM High Glucose without Glutamine and Na Pyruvate (GIBCO) and 10% (v/v) dialyzed FBS (GIBCO). The reason for the removal of glutamine the day before the assay is to minimize the amount of glutamate that will be present during the assay, as endogenous glutarnate released from the cells can reduce the fluorescent response and interfere with the FLIPR screen.
# FLIPR Methods and Data Analysis:
# On the day of the assay, the FLIPR assay is performed using the following methods:
# The pH is adjusted to 7.4 with 1M NaOH. Prepare a 2 mM (approx.) stock solution of Fluo-4.am (Molecular Probes) dye in DMSO −22 μl DMSO per 50 ug vial (440 μL per 1 mg vial). Make a 1 mM (approx.) flou-4, PA working solution per vial by adding 22 μl of 20% pluronic acid (PA) (Molecular Probes) in DMSO to each 50 ug vial (440 μL per 1 mg vial). Prepare a 250 mM Probenecid (Sigma) stock solution by dissolving 0.71 g into 5 ml 1N NaOH and 5 ml assay buffer (for each liter of assay wash buffer). Make 4 uM (approx.) dye incubation media by adding 2.50 ug vials per 11 ml DMEM high glucose without glutamine (220 ml per 1 mg vial). Add 110 μL probenecid stock per 11 ml (2.5 mM final [concentration]). To the dye media add 3 units/ml of glutamic-pyruvic transaminase (GPT, Sigma) and 3 mM Na Pyruvate. The assay has worked with dye concentrations from 2 uM to 8 uM dye as well. To the assay buffer from drug preparation, add 1.83 mls DMSO and 400 μL. 15.8% P104 (from New Leads biology) per liter for final concentrations of 0.18% DMSO and 0.006% P104. To the assay buffer for cell washing, add probenecid in the same manner and concentration that was used for the dye media.
# Remove growth media from cell plates by flicking. Add 50 μl/well dye solution. Incubate 1 hour at 37° C. and 5% CO2. Remove dye solution and wash 3 times with assay buffer+probenecid (100 μl probenecid stock per 10 ml buffer), leaving 30 μL/well assay buffer. Wait at least 10-15 minutes. Compounds and agonist challenge additions are performed with the FLIPR. The in addition is for test compounds, which are added as 15 μL of 4× [concentration] of potentiator. The second 2nd addition is 15 μL of 4× [concentration] of agonist or challenge. This achieves 1× concentration of all compounds only after 2nd addition. The 1st and 2nd additions are performed separately using the FLIPR, which give 2 different data files. Compounds are pretreated at least 30 minutes before agonist addition.
# Results are analyzed by dividing the peak fluorescent value of the FLIPR response by the […] to achieve a ratio response. The ratios are then analyzed by curve fitting programs. Since potent compounds can give an inverted U dose response curve (due to effects on endogenous glutamate by the potentiators) points are deleted at concentrations higher than the concentration that gives the maximum effect. Maximum values for dose response curves (forced fitting) are derived from standards on the plate.
# Compound Preparation and Glutamate Challenge: […]
# T1 sequence (Q14416 19-872, species assumed): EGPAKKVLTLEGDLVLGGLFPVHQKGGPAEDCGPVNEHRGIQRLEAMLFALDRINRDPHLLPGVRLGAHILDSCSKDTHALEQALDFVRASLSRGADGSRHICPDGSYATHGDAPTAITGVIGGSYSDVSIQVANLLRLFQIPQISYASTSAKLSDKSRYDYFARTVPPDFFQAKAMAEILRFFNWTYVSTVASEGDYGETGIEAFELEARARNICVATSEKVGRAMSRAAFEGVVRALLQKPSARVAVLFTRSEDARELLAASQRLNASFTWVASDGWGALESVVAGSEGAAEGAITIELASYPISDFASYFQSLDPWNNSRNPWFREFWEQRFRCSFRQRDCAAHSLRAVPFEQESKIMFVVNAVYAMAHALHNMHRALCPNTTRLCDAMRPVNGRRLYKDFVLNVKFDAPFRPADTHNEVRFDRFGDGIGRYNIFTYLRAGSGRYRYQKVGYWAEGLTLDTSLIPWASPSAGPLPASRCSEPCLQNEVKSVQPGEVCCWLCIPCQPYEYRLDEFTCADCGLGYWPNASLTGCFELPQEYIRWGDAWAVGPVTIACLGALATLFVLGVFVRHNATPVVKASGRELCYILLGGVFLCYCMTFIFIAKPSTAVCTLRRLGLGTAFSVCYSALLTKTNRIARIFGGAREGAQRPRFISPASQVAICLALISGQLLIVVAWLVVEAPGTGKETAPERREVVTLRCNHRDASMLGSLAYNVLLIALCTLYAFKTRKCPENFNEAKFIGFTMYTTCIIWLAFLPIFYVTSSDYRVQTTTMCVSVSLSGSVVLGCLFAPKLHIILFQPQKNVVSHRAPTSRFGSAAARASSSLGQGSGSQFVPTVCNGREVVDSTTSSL
Compound,EC50 (read-out: EC50),EC50 (EC50 (uM))
COCC(=O)N1CC2(CCN(Cc3nc4ccccc4n3C)CC2)c2cc(Cl)ccc21 [compound 44],> 5.1 µM,
Cn1c(CN2CCC3(CC2)CN(C(=O)C2CC2)c2ccc(Cl)cc23)nc2ccccc21 [compound 45],1.12 µM,
Cn1c(CN2CCC3(CC2)CN(C(=O)c2ccco2)c2ccc(Cl)cc23)nc2ccccc21 [compound 46],> 4.86 µM,
COc1ccccc1C1CCN(Cc2nc3ccccc3n2C)CC1 [compound 47],0.0771 µM,
Cn1c(CN2CCC3(CC2)CN(C(=O)c2ccc4nccnc4c2)c2ccccc23)nc2ccccc21 [compound 48],> 6.63 µM,
Cn1c(CN2CCC3(CC2)CN(C(=O)c2ccsc2)c2ccccc23)nc2ccccc21 [compound 49],1.2 µM,
Cn1c(CN2CCC3(CC2)CN(C(=O)c2ccoc2)c2ccccc23)nc2ccccc21 [compound 50],4.93 µM,
COC(=O)CCCCC(=O)N1CC2(CCN(Cc3nc4ccccc4n3C)CC2)c2ccccc21 [compound 51],7.13 µM,
Cn1c(CN2CCC3(CC2)CN(C(=O)C2COc4ccccc4O2)c2ccccc23)nc2ccccc21 (stereo not shown) [compound 52],1.39 µM,
Cc1cc(C(=O)N2CC3(CCN(Cc4nc5ccccc5n4C)CC3)c3ccccc32)n(C)n1 [compound 53],> 6.29 µM,
Cc1noc(C)c1C(=O)N1CC2(CCN(Cc3nc4ccccc4n3C)CC2)c2ccccc21 [compound 54],> 5.56 µM,
Cn1c(CN2CCC3(CC2)CN(C(=O)c2cccc(C#N)c2)c2ccccc23)nc2ccccc21 [compound 55],3.01 µM,
Cn1c(CN2CCC3(CC2)CN(C(=O)c2ccc(C#N)cc2)c2ccccc23)nc2ccccc21 [compound 56],1.75 µM,
Cn1c(CN2CCC3(CC2)CN(C(=O)COc2ccccc2)c2ccccc23)nc2ccccc21 [compound 57],0.508 µM,
Cn1c(CN2CCC3(CC2)CN(C(=O)COCc2ccccc2)c2ccccc23)nc2ccccc21 [compound 58],0.589 µM,
Cn1c(CN2CCC3(CC2)CN(C(=O)c2cccs2)c2ccccc23)nc2ccccc21 [compound 59],3.11 µM,
Cn1c(CN2CCC3(CC2)CN(C(=O)C2CCC2)c2ccccc23)nc2ccccc21 [compound 60],2.22 µM,
Cn1c(CN2CCC3(CC2)CN(C(=O)C2CC2)c2ccccc23)nc2ccccc21 [compound 61],4.01 µM,
CCCCC(=O)N1CC2(CCN(Cc3nc4ccccc4n3C)CC2)c2ccccc21 [compound 62],0.261 µM,
Cn1c(CN2CCC3(CC2)CN(C(=O)c2ccco2)c2ccccc23)nc2ccccc21 [compound 63],4.51 µM,
CCCC(=O)N1CC2(CCN(Cc3nc4ccccc4n3C)CC2)c2ccccc21 [compound 64],1.41 µM,
COc1cccc(C2CCN(Cc3nc4ccccc4n3C)CC2)c1 [compound 65],0.241 µM,

Compound,EC50 (read-out: EC50),EC50 (EC50 (uM))
CC(=O)C1(c2ccccc2)CCN(Cc2nc3ccccc3n2C)CC1 [compound 66],,> 5.23 µM
Cn1c(CN2CC[C@@H]3c4ccccc4CC[C@@H]3C2)nc2ccccc21 [compound 67],0.693 µM,
Cn1c(CN2CCC(O)(c3cc(Br)cc(Br)c3)CC2)nc2ccccc21 [compound 68],1.24 µM,
COc1cccc2c1CCCC21CCN(Cc2nc3ccccc3n2C)CC1 [compound 69],> 6.97 µM,
Cn1c(CN2CCC(O)(c3ccc(Cl)c(C(F)(F)F)c3)CC2)nc2ccccc21 [compound 71],4.35 µM,
COc1cccc(C2(C#N)CCN(Cc3nc4ccccc4n3C)CC2)c1 [compound 72],,10.6 µM
CCC(=O)C1(c2ccccc2)CCN(Cc2nc3ccccc3n2C)CC1 [compound 73],,3.97 µM
Cn1c(CN2CCC(c3ccccc3)CC2)nc2ccccc21 [compound 74],0.212 µM,
Cn1c(CN2CCC(O)(c3ccc(Br)cc3)CC2)nc2ccccc21 [compound 75],> 7.48 µM,
Cn1c(CN2CCC(O)(c3ccc(Cl)cc3)CC2)nc2ccccc21 [compound 76],> 5.73 µM,
Cn1c(CN2CCC(C#N)(c3ccccc3)CC2)nc2ccccc21 [compound 77],,> 4.71 µM
CC(C)Oc1ccccc1C1CCN(Cc2nc3ccccc3n2C)CC1 [compound 78],0.475 µM,
Cn1c(CN2CCC(c3ccccc3F)CC2)nc2ccccc21 [compound 79],0.021 µM,
C[C@@H]1CN(Cc2nc3ccccc3n2C)CC[C@]1(C)c1cccc(NS(C)(=O)=O)c1 [compound 80],> 1.25 µM,
COC(=O)c1cccc([C@]2(C)CCN(Cc3nc4ccccc4n3C)C[C@@H]2C)c1 [compound 81],6.08 µM,
CC1CN(Cc2nc3ccccc3n2C)CC(C)C1(O)c1ccccc1 (stereo not shown) [compound 82],> 7.44 µM,
C[C@@H]1CN(c2cccc(C3CCN(Cc4nc5ccccc5n4C)CC3)c2)C[C@H](C)O1 [compound 83],0.82 µM,
Cn1c(CN2CCC(c3ccccc3OCC3CCC3)CC2)nc2ccccc21 [compound 84],0.744 µM,
CC1CN(CCOc2ccccc2C2CCN(Cc3nc4ccccc4n3C)CC2)CC(C)O1 (stereo not shown) [compound 85],1.37 µM,
Cn1c(CN2CCC(c3ccccc3OCC3CCCC3)CC2)nc2ccccc21 [compound 86],2.31 µM,
CC(C)OCCOc1ccccc1C1CCN(Cc2nc3ccccc3n2C)CC1 [compound 87],0.621 µM,
CN(C)CCCOc1ccccc1C1CCN(Cc2nc3ccccc3n2C)CC1 [compound 88],4.19 µM,

Compound,EC50 (read-out: EC50),EC50 (EC50 (uM))
CCOCCOc1ccccc1C1CCN(Cc2nc3ccccc3n2C)CC1 [compound 89],1.75 µM,
CCOCCCOc1ccccc1C1CCN(Cc2nc3ccccc3n2C)CC1 [compound 91],1.4 µM,
Cn1c(CN2CCC(c3ccccc3OCCC3CC3)CC2)nc2ccccc21 [compound 92],> 3.27 µM,
CCCCCOc1ccccc1C1CCN(Cc2nc3ccccc3n2C)CC1 [compound 93],0.324 µM,
CC[C@H](C)COc1ccccc1C1CCN(Cc2nc3ccccc3n2C)CC1 [compound 94],1.61 µM,
CCCCOc1ccccc1C1CCN(Cc2nc3ccccc3n2C)CC1 [compound 95],1.04 µM,
CC(C)COc1ccccc1C1CCN(Cc2nc3ccccc3n2C)CC1 [compound 96],> 3.92 µM,
Cn1c(CN2CCC(c3ccccc3OCCc3ccccn3)CC2)nc2ccccc21 [compound 97],> 9.64 µM,
CN1CCC[C@H]1COc1ccccc1C1CCN(Cc2nc3ccccc3n2C)CC1 [compound 98],> 4.81 µM,
Cn1c(CN2CCC(c3ccccc3OC3CCOCC3)CC2)nc2ccccc21 [compound 99],2.12 µM,
CCOc1ccccc1C1CCN(Cc2nc3ccccc3n2C)CC1 [compound 100],2.91 µM,
Cn1c(CN2CCC(c3ccccc3O[C@H]3CCOC3)CC2)nc2ccccc21 [compound 101],5.72 µM,
Cn1c(CN2CCC(c3ccccc3OC3Cc4ccccc4C3)CC2)nc2ccccc21 [compound 102],1.5 µM,
CC(Oc1ccccc1C1CCN(Cc2nc3ccccc3n2C)CC1)c1ccccc1 (stereo not shown) [compound 103],> 5.64 µM,
CCN1CC2(CCN(Cc3nc4ccccc4n3C)CC2)c2cc(Cl)ccc21 [compound 105],3.37 µM,
CC(C)CN1CC2(CCN(Cc3nc4ccccc4n3C)CC2)c2ccccc21 [compound 106],2.58 µM,
Cn1c(CN2CCC3(CC2)CN(CC2CCCO2)c2ccc(Cl)cc23)nc2ccccc21 (stereo not shown) [compound 107],6.65 µM,
Cn1c(CN2CCC3(CC2)CN(Cc2cccnc2)c2ccc(Cl)cc23)nc2ccccc21 [compound 108],> 8.73 µM,
Cn1c(CN2CCC3(CC2)CN(Cc2ccccc2)c2ccccc23)nc2ccccc21 [compound 109],5.22 µM,
CCN1CC2(CCN(Cc3nc4ccccc4n3C)CC2)c2ccccc21 [compound 110],4.98 µM,
